From US9796719B2, “Compounds and pharmaceutical compositions thereof for the treatment of inflammatory disorders” (GALAPAGOS NV, priority 2013, dated 2017)

target: hENPP2 (UniProtKB/SwissProt Sequence ref Q13822) (Homo sapiens (Human), UniProt Q13822); assay: LPC hENPP2 assay (choline release, LPC as substrate); format: biochemical
Experimental: The principle of the assay consists in quantifying the released choline with an enzymatic method using choline oxidase and peroxidase. Choline oxydation by choline oxydase releases betaine and peroxide. The latter is quantified in presence of HRP that converts the peroxide detection agent TOOS and 4-aminoantipyrine into quinoneimine dye. The appearance of quinoneimine dye is measured spectrophotometrically at 555 nm and is proportional to the amount of choline released by ENPP2. Inhibition of ENPP2 will result in a decrease of the signal.
The reaction is terminated and choline quantified by the addition of a 25 μL of a mixture containing 0.6 U/mL of choline oxidase, 0.6 U/mL of peroxydase, 1.8 mM TOOS, 1.2 mM amino-antipyrine, 20 mM EGTA (stop-developer solution) diluted in the buffer described above. […] is read on the Envision after an incubation of 30 min at room temperature (Excitation 555 nm, excitation light=70%).

`CCc1nc2ccc(N3CCN(CCNC(=O)OC(C)(C)C)CC3)nn2c1N(C)c1nc(-c2ccc(F)cc2)cs1` [Cpd 56, tert-butyl 2-(4-(2-ethyl-3-((4-(4-fluorophenyl)thiazol-2-yl)(methyl)amino)imidazo[1,2-b]pyridazin-6-yl)piperazin-1-yl)ethylcarbamate] and `CCOC(=O)NCCN1CCN(c2ccc3nc(CC)c(N(C)c4nc(-c5ccc(F)cc5)cs4)n3n2)CC1` [Cpd 58, ethyl 2-(4-(2-ethyl-3-((4-(4-fluorophenyl)thiazol-2-yl)(methyl)amino)imidazo[1,2-b]pyridazin-6-yl)piperazin-1-yl)ethylcarbamate] cannot be ordered by IC50: greater than 1000 nM for the first, greater than 1000 nM for the second.

`CCc1nc2ccc(N3CCN(C(=O)OC(C)(C)C)[C@H](CO)C3)nn2c1N(C)c1nc(-c2ccc(F)cc2)cs1` [Cpd 59, (S)-tert-butyl 4-(2-ethyl-3-((4-(4-fluorophenyl)thiazol-2-yl)(methyl)amino)imidazo[1,2-b]pyridazin-6-yl)-2-(hydroxymethyl) piperazine-1-carboxylate] and `CCc1nc2ccc(N3CCN(S(C)(=O)=O)[C@@H](CO)C3)nn2c1N(C)c1nc(-c2ccc(F)cc2)cs1` [Cpd 69, (R)-(4-(2-ethyl-3-((4-(4-fluorophenyl)thiazol-2-yl)(methyl)amino)imidazo[1,2-b]pyridazin-6-yl)-1-(methylsulfonyl)piperazin-2-yl)methanol] cannot be ordered by IC50: greater than 1000 nM for the first, greater than 1000 nM for the second.

First: CCc1nc2ccc(N3CCN(S(C)(=O)=O)[C@H](CO)C3)nn2c1N(C)c1nc(-c2ccc(F)cc2)c(CO)s1 [Cpd 68, (S)-(4-(2-ethyl-3-((4-(4-fluorophenyl)-5-(hydroxymethyl)thiazol-2-yl)(methyl)amino)imidazo[1,2-b]pyridazin-6-yl)-1-(methylsulfonyl)piperazin-2-yl)methanol]
Second: CCc1nc2ccc(N3C[C@H]4C[C@H]3CN4S(C)(=O)=O)nn2c1N(C)c1nc(-c2ccc(F)cc2)cs1 [Cpd 76, N-(2-ethyl-6-((1S,4R)-5-(methylsulfonyl)-2,5-diazabicyclo[2.2.1]heptan-2-yl)imidazo[1,2-b]pyridazin-3-yl)-4-(4-fluorophenyl)-N-methylthiazol-2-amine]
The IC50 of the first is lower: 100 to 500 nM for the first, greater than 1000 nM for the second. The first is the more potent here.

First: CCc1nc2ccc(N3CCN(C4CCN(Cc5ccc(OC)cc5)C4=O)CC3)nn2c1N(C)c1nc(-c2ccc(F)cc2)cs1 (stereo not shown) [Cpd 70, 3-(4-(2-ethyl-3-((4-(4-fluorophenyl)thiazol-2-yl)(methyl)amino)imidazo[1,2-b]pyridazin-6-yl)piperazin-1-yl)-1-(4-methoxybenzyl) pyrrolidin-2-one]
Second: CCc1nc2ccc(N3CCC(c4ccccc4)CC3)nn2c1N(C)c1nc(-c2ccc(F)cc2)cs1 [Cpd 113, N-(2-ethyl-6-(4-phenylpiperidin-1-yl)imidazo[1,2-b]pyridazin-3-yl)-4-(4-fluorophenyl)-N-methylthiazol-2-amine]
The IC50 of the first is lower: 500 to 1000 nM for the first, greater than 1000 nM for the second.

First: CCc1nc2ccc(N3CCN(CC(=O)N(C)C)CC3)nn2c1N(C)c1nc(-c2ccc(F)cc2C)cs1 [Cpd 73, 2-(4-(2-ethyl-3-((4-(4-fluoro-2-methylphenyl)thiazol-2-yl)(methyl)amino)imidazo[1,2-b]pyridazin-6-yl)piperazin-1-yl)-N,N-dimethylacetamide]
Second: CCc1nc2ccc(N3CCC(CNC(=O)N(C)C)CC3)nn2c1N(C)c1nc(-c2ccc(F)cc2)cs1 [Cpd 106, 3-((l-(2-ethyl-3-((4-(4-fluorophenyl)thiazol-2-yl)(methyl)amino)imidazo[1,2-b]pyridazin-6-yl)piperidin-4-yl)methyl)-1,1-dimethylurea]
The IC50 of the first is lower: 100 to 500 nM for the first, greater than 1000 nM for the second. The first is the more potent here.

`CCc1nc2ccc(N3C[C@H]4C[C@H]3CN4C(=O)OC(C)(C)C)nn2c1N(C)c1nc(-c2ccc(F)cc2)cs1` [Cpd 74, tert-butyl-(1R,4S)-5-(2-ethyl-3-((4-(4-fluorophenyl)thiazol-2-yl)(methyl)amino)imidazo[1,2-b]pyridazin-6-yl)-2,5-diazabicyclo[2.2.1] heptane-2-carboxylate] and `CCc1nc2ccc(N3C[C@H]4C[C@H]3CN4C(C)=O)nn2c1N(C)c1nc(-c2ccc(F)cc2)cs1` [Cpd 75, 1-((1R,4S)-5-(2-ethyl-3-((4-(4-fluorophenyl)thiazol-2-yl)(methyl)amino)imidazo[1,2-b]pyridazin-6-yl)-2,5-diazabicyclo[2.2.1]heptan-2-yl)ethanone] cannot be ordered by IC50: greater than 1000 nM for the first, greater than 1000 nM for the second.

`CCc1nc2ccc(N3CCC4(CCCCC4)CC3)nn2c1N(C)c1nc(-c2ccc(F)cc2)cs1` [Cpd 77, N-(2-ethyl-6-(3-azaspiro[5.5]undecan-3-yl)imidazo[1,2-b]pyridazin-3-yl)-4-(4-fluorophenyl)-N-methylthiazol-2-amine] and `CCc1nc2ccc(N3CCC4(CCOCC4)C3)nn2c1N(C)c1nc(-c2ccc(F)cc2)cs1` [Cpd 117, N-(2-ethyl-6-(8-oxa-2-azaspiro[4.5]decan-2-yl)imidazo[1,2-b]pyridazin-3-yl)-4-(4-fluorophenyl)-N-methylthiazol-2-amine] cannot be ordered by IC50: greater than 1000 nM for the first, greater than 1000 nM for the second.

`CCc1nc2ccc(N3CCC(N(C)C)CC3)nn2c1N(C)c1nc(-c2ccc(F)cc2)cs1` [Cpd 80, N-(6-(4-(dimethylamino)piperidin-1-yl)-2-ethylimidazo[1,2-b]pyridazin-3-yl)-4-(4-fluorophenyl)-N-methylthiazol-2-amine] and `CCc1nc2ccc(N3CCC(O)CC3)nn2c1N(C)c1nc(-c2ccc(F)cc2)cs1` [Cpd 90, 1-(2-ethyl-3-((4-(4-fluorophenyl)thiazol-2-yl)(methyl)amino)imidazo[1,2-b]pyridazin-6-yl)piperidin-4-ol] cannot be ordered by IC50: greater than 1000 nM for the first, greater than 1000 nM for the second.

`CCc1nc2ccc(N3CCC(NC(=O)CO)CC3)nn2c1N(C)c1nc(-c2ccc(F)cc2)cs1` [Cpd 85, N-(1-(2-ethyl-3-((4-(4-fluorophenyl)thiazol-2-yl)(methyl)amino)imidazo[1,2-b]pyridazin-6-yl)piperidin-4-yl)-2-hydroxyacetamide] and `CCc1nc2ccc(N3CCC(NC(=O)C4(C)COC4)CC3)nn2c1N(C)c1nc(-c2ccc(F)cc2)cs1` [Cpd 86, N-(1-(2-ethyl-3-((4-(4-fluorophenyl)thiazol-2-yl)(methyl)amino)imidazo[1,2-b]pyridazin-6-yl)piperidin-4-yl)-3-methyloxetane-3-carboxamide] cannot be ordered by IC50: greater than 1000 nM for the first, greater than 1000 nM for the second.

Compared with `CCc1nc2ccc(N3CCC(NC(=O)C4CCN(C(=O)OC(C)(C)C)CC4)CC3)nn2c1N(C)c1nc(-c2ccc(F)cc2)cs1` [Cpd 87, tert-butyl 4-(1-(2-ethyl-3-((4-(4-fluorophenyl)thiazol-2-yl)(methyl)amino)imidazo[1,2-b]pyridazin-6-yl)piperidin-4-ylcarbamoyl) piperidine-1-carboxylate], `CCc1nc2ccc(N3CCC(NC(=O)C4CCNCC4)CC3)nn2c1N(C)c1nc(-c2ccc(F)cc2)cs1` [Cpd 88, N-(1-(2-ethyl-3-((4-(4-fluorophenyl)thiazol-2-yl)(methyl)amino)imidazo[1,2-b]pyridazin-6-yl)piperidin-4-yl)piperidine-4-carboxamide] is lower in IC50: greater than 1000 nM for the first, 500 to 1000 nM for the second. The second is the more potent here.

`CCNC(=O)COC1CCCN(c2ccc3nc(CC)c(N(C)c4nc(-c5ccc(F)cc5)cs4)n3n2)C1` (stereo not shown) [Cpd 92, N-ethyl-2-(1-(2-ethyl-3-((4-(4-fluorophenyl)thiazol-2-yl)(methyl)amino)imidazo[1,2-b]pyridazin-6-yl)piperidin-3-yloxy)acetamide] and `CCc1nc2ccc(N3CCC(CN)CC3)nn2c1N(C)c1nc(-c2ccc(F)cc2)cs1` [Cpd 104, N-(6-(4-(aminomethyl)piperidin-1-yl)-2-ethylimidazo[1,2-b]pyridazin-3-yl)-4-(4-fluorophenyl)-N-methylthiazol-2-amine] cannot be ordered by IC50: greater than 1000 nM for the first, greater than 1000 nM for the second.

`CCc1nc2ccc(N3CCC(CNC(=O)OC(C)(C)C)CC3)nn2c1N(C)c1nc(-c2ccc(F)cc2)cs1` [Cpd 103, [1-(2-Ethyl-3-{[4-(4-fluoro-phenyl)-thiazol-2-yl]-methyl-amino}-imidazo[1,2-b]pyridazin-6-yl)-piperidin-4-ylmethyl]-carbamic acid tert-butyl ester] and `CCc1nc2ccc(N3CCC(CNS(C)(=O)=O)CC3)nn2c1N(C)c1nc(-c2ccc(F)cc2)cs1` [Cpd 105, N-((1-(2-ethyl-3-((4-(4-fluorophenyl)thiazol-2-yl)(methyl)amino)imidazo[1,2-b]pyridazin-6-yl)piperidin-4-yl)methyl) methanesulfonamide] cannot be ordered by IC50: greater than 1000 nM for the first, greater than 1000 nM for the second.

First: CCc1nc2ccc(N3CCC(CNC(=O)C4CCOCC4)CC3)nn2c1N(C)c1nc(-c2ccc(F)cc2)cs1 [Cpd 107, N-((1-(2-ethyl-3-((4-(4-fluorophenyl)thiazol-2-yl)(methyl)amino)imidazo[1,2-b]pyridazin-6-yl)piperidin-4-yl)methyl) tetrahydro-2H-pyran-4-carboxamide]
Second: CCc1nc2ccc(N3CCCC(N4CCOCC4)C3)nn2c1N(C)c1nc(-c2ccc(F)cc2)cs1 (stereo not shown) [Cpd 110, N-(2-ethyl-6-(3-morpholino-piperidin-1-yl)imidazo[1,2-b]pyridazin-3-yl)-4-(4-fluorophenyl)-N-methylthiazol-2-amine]
The IC50 of the first is lower: 500 to 1000 nM for the first, greater than 1000 nM for the second.

`CCc1nc2ccc(N3CCC(N4CCCCC4)CC3)nn2c1N(C)c1nc(-c2ccc(F)cc2)cs1` [Cpd 111, N-(6-(1,4′-bipiperidin-1′-yl)-2-ethylimidazo[1,2-b]pyridazin-3-yl)-4-(4-fluorophenyl)-N-methylthiazol-2-amine] and `CCc1nc2ccc(N3CCCC(N4CCC(O)CC4)C3)nn2c1N(C)c1nc(-c2ccc(F)cc2)cs1` (stereo not shown) [Cpd 112, l′-(2-ethyl-3-((4-(4-fluorophenyl)thiazol-2-yl)(methyl)amino)imidazo[1,2-b]pyridazin-6-yl)-1,3′-bipiperidin-4-ol] cannot be ordered by IC50: greater than 1000 nM for the first, greater than 1000 nM for the second.
